For assay [1], the system named is NMuMG cells. As to the kind of experiment: Clonogenic assay after X-ray irradiation. In kind it is cell-based, mouse. As to conditions: 30 μM, 2 h pretreatment, X-ray 2, 4, 6 Gy, colonies after two weeks. The source says: Eight groups of BNL CL.2 cells (i.e., a normal control group referred to as Normal Control Group 1-A, an isorhamnetin-3-O-β-D-glucoside group referred to as Isorhamnetin-3-O-β-D-glucoside Group 1-A, three X-ray control groups referred to as X-Ray Control Groups 1-A to 3-A, and three experimental groups referred to as Experimental Groups 1-A to 3-A) and eight groups of NMuMG cells (i.e., a normal control group referred to as Normal Control Group 1-B, an isorhamnetin-3-O-β-D-glucoside group referred to as Isorhamnetin-3-O-β-D-glucoside Group 1-B, three X-ray control groups referred to as X-Ray Control Groups 1-B to 3-B, and three experimental groups referred to as Experimental Groups 1-B to 3-B) were prepared based on the procedure set forth in “Source and cultivation of cell lines” of “Experimental materials”. Specifically, BNL CL.2 cells in each group were cultivated using 5 mL of a corresponding medium shown in Table 1 and a 6-cm Petri dish in an amount of 2×10^5 cells per dish. Likewise, NMuMG cells in each group were cultivated using 5 mL of a corresponding medium shown in Table 1 and a 6-cm Petri dish in an amount of 2.5×10^5 cells per dish. The cultivation was conducted in an incubator (37° C., 5% CO2) for 24 hours. […]

For assay [2], the system named is NMuMG cells. Put plainly: Cell cycle analysis (PI flow cytometry) after X-ray irradiation. In kind it is cell-based, mouse. As to conditions: 2 h pretreatment, X-ray 20 Gy, 96 hours, mean ± SEM. As for the experimental part:
Four groups of NMuMG cells (i.e., a normal control group, an X-ray control group, and two experimental groups referred to as Experimental Groups 1 to 2) were prepared based on the procedure set forth in “Source and cultivation of cell lines” of “Experimental materials”. NMuMG cells in each group were cultivated using 5 mL of a corresponding medium shown in Table 1 and a 6-cm Petri dish in an amount of 2.5×10^5 cells per dish. The cultivation was conducted in an incubator (37° C., 5% CO2) for 24 hours.
Subsequently, medium was replaced with fresh medium, and a suitable amount of isorhamnetin-3-O-β-D-glucoside stock solution was added to the obtained culture in each of Experimental Groups 1 and 2, such that the final concentration of isorhamnetin-3-O-β-D-glucoside in the culture in Experimental Group 1 was 15 μM, and the final concentration of isorhamnetin-3-O-β-D-glucoside in the culture in Experimental Group 2 was 30 μM. Isorhamnetin-3-O-β-D-glucoside stock solution was not added to the cultures in the normal control group and the X-ray control group.
The culture in each group was then cultivated in an incubator (37° C., 5% CO2) for two hours. The resultant culture was used for the following cell cycle analysis.
The cultures in the X-ray control group and Experimental Groups 1 to 2, prepared according to section A of “Experimental procedures” in this example, were subjected to X-ray irradiation using a linear accelerator at a dose of 20 Gy. The culture in the normal control group received no X-ray irradiation treatment. The culture in each group was cultivated in an incubator (37° C., 5% CO2) for 96 hours, followed by centrifugation at 25° C. and 1200 rpm for 3 minutes. The supernatant was removed, and the precipitate thus obtained was washed with cold PBS (pH 7.4), followed by fixing the cells with 1 mL of cold methanol. The fixed cells thus obtained were left standing at −20° C. overnight. Following this, the fixed cells were washed with cold PBS (pH 7.4), and 250 μL of cold DNA dying solution which was prepared in ddH2O, containing 200 μg/mL RNase A solution (Sigma-Aldrich), 50 μg/mL propidium iodide (PI)(Sigma-Aldrich), and 0.1% (v/v) Triton X-100, was added to re-suspend the cells in each group. The cells were kept in the dark for 30 minutes at 37° C. to obtain stained cells.
Subsequently, the stained cells thus obtained were subjected to cell cycle analysis using BD Accuri™ C6 flow cytometer (BD Biosciences), and 1.0×10^6 cells were analyzed in each analysis. The cells emitted fluorescence when excited by a laser beam of argon ion at 488 nm, and the fluorescence intensity was detected at a wavelength of 585 nm. The percentage of the cells in each cell cycle phase was analyzed using BD Accuri™ C6 software (BD Biosciences).
In general terms: A flow cytometer gives signals particle by particle.

The structures appear in SMILES notation.

On to `COc1cc(-c2oc3cc(O)cc(O)c3c(=O)c2O[C@@H]2O[C@H](CO)[C@@H](O)[C@H](O)[C@H]2O)ccc1O` [isorhamnetin-3-O-β-D-glucoside], for which the “survival fraction (clonogenic assay) versus X-ray control group” value in the assay with NMuMG cells [1] is given as “higher than that of the X-ray control group”. Also, in the assay on NMuMG cells [2] (15 μM), the “The percentage of the cells in each cell cycle phase: G0/G1” value was 21 ± 4.31 %, the “The percentage of the cells in each cell cycle phase: G2/M” value is listed as 58.76 ± 8.97%, the “The percentage of the cells in each cell cycle phase: S” value worked out at 6.4 ± 0.28% and the “The percentage of the cells in each cell cycle phase: Sub-G1” value is 16.11 ± 2.03 %. Also, in the assay on NMuMG cells [2] (30 μM), the “The percentage of the cells in each cell cycle phase: G0/G1” value worked out at 22.25 ± 4.87 %, the “The percentage of the cells in each cell cycle phase: G2/M” value came to 59.63 ± 10.78%, the “The percentage of the cells in each cell cycle phase: S” value amounted to 5.88 ± 1.2% and the “The percentage of the cells in each cell cycle phase: Sub-G1” value stood at 13.88 ± 1.46 %.

(Values after patent publication US9821002B2, “Method for alleviating radiation injury with isorhamnetin-3-O-β-D-glucoside” (Sinotai Oncology Associate., Ltd., priority 2015, dated 2017).)
